In publication PMC7523345 (Investigational new drugs, 2018):
Entries after “also recorded” stand apart in the source; their conditions may differ.

Assay: Phase I dose escalation study: safety, tolerability, DLT and MTD
Type: in vivo

Cc1cccc2c1NC(=O)[C@@H](NC(=O)[C@H](CCC(F)(F)F)[C@H](CCC(F)(F)F)C(N)=O)N=C2c1cccc(F)c1 [BMS-986115]
Diarrhoea (drug related AE, Grade 3 and 4) (Arm A QD 1.5 mg (N = 7)): 2 (29) n (%)
Diarrhoea (drug related AE, all grades) (Arm A QD 1.5 mg (N = 7)): 6 (86) n (%)
Dry mouth (drug related AE, all grades) (Arm A QD 1.5 mg (N = 7)): 0 n (%)
Dry skin (drug related AE, all grades) (Arm A QD 1.5 mg (N = 7)): 1 (14) n (%)
Dysgeusia (drug related AE, all grades) (Arm A QD 1.5 mg (N = 7)): 0 n (%)
Dyspepsia (drug related AE, all grades) (Arm A QD 1.5 mg (N = 7)): 0 n (%)
Dysphonia (drug related AE, all grades) (Arm A QD 1.5 mg (N = 7)): 1 (14) n (%)
Fatigue (drug related AE, Grade 3 and 4) (Arm A QD 1.5 mg (N = 7)): 1 (14) n (%)
Fatigue (drug related AE, all grades) (Arm A QD 1.5 mg (N = 7)): 4 (57) n (%)
Flatulence (drug related AE, all grades) (Arm A QD 1.5 mg (N = 7)): 0 n (%)
Hypocalcaemia (drug related AE, Grade 3 and 4) (Arm A QD 1.5 mg (N = 7)): 0 n (%)
Hypocalcaemia (drug related AE, all grades) (Arm A QD 1.5 mg (N = 7)): 1 (14) n (%)
Hypokalaemia (drug related AE, Grade 3 and 4) (Arm A QD 1.5 mg (N = 7)): 1 (14) n (%)
Hypokalaemia (drug related AE, all grades) (Arm A QD 1.5 mg (N = 7)): 2 (29) n (%)
Hyponatraemia (drug related AE, Grade 3 and 4) (Arm A QD 1.5 mg (N = 7)): 1 (14) n (%)
Hyponatraemia (drug related AE, all grades) (Arm A QD 1.5 mg (N = 7)): 1 (14) n (%)
Hypophosphataemia (drug related AE, Grade 3 and 4) (Arm A QD 1.5 mg (N = 7)): 2 (29) n (%)
Hypophosphataemia (drug related AE, all grades) (Arm A QD 1.5 mg (N = 7)): 4 (57) n (%)
Ileus (drug related AE, Grade 3 and 4) (Arm A QD 1.5 mg (N = 7)): 0 n (%)
Increased upper airway secretion (drug related AE, all grades) (Arm A QD 1.5 mg (N = 7)): 0 n (%)
Laryngeal pain (drug related AE, all grades) (Arm A QD 1.5 mg (N = 7)): 2 (29) n (%)
Leucocytosis (drug related AE, Grade 3 and 4) (Arm A QD 1.5 mg (N = 7)): 0 n (%)
Mouth ulceration (drug related AE, all grades) (Arm A QD 1.5 mg (N = 7)): 0 n (%)
Nausea (drug related AE, Grade 3 and 4) (Arm A QD 1.5 mg (N = 7)): 2 (29) n (%)
Nausea (drug related AE, all grades) (Arm A QD 1.5 mg (N = 7)): 5 (71) n (%)
Pruritus (drug related AE, Grade 3 and 4) (Arm A QD 1.5 mg (N = 7)): 0 n (%)
Pruritus (drug related AE, all grades) (Arm A QD 1.5 mg (N = 7)): 2 (29) n (%)
Pulmonary embolism (drug related AE, Grade 3 and 4) (Arm A QD 1.5 mg (N = 7)): 1 (14) n (%)
Rash (drug related AE, all grades) (Arm A QD 1.5 mg (N = 7)): 2 (29) n (%)
Rash maculopapular (drug related AE, all grades) (Arm A QD 1.5 mg (N = 7)): 0 n (%)
Sinusitis (drug related AE, all grades) (Arm A QD 1.5 mg (N = 7)): 0 n (%)
Urticaria (drug related AE, Grade 3 and 4) (Arm A QD 1.5 mg (N = 7)): 0 n (%)
Vision blurred (drug related AE, all grades) (Arm A QD 1.5 mg (N = 7)): 1 (14) n (%)
Vomiting (drug related AE, Grade 3 and 4) (Arm A QD 1.5 mg (N = 7)): 0 n (%)
Vomiting (drug related AE, all grades) (Arm A QD 1.5 mg (N = 7)): 4 (57) n (%)
Weight decreased (drug related AE, all grades) (Arm A QD 1.5 mg (N = 7)): 1 (14) n (%)
No. of patients with DLTs (Arm A QD 1.5 mg, 6 DLT evaluable patients): 1
Description of DLT (Arm A QD 2.0 mg): Gr 3 ileus; Gr 3 nausea; Gr 3 pruritus/urticaria; also recorded: G3 ileus; also recorded: G3 nausea; also recorded: G3 pruritus/urticaria
Abdominal distension (drug related AE, all grades) (Arm A QD 2.0 mg (N = 7)): 0 n (%)
Abdominal pain (drug related AE, Grade 3 and 4) (Arm A QD 2.0 mg (N = 7)): 0 n (%)
Abdominal pain (drug related AE, all grades) (Arm A QD 2.0 mg (N = 7)): 1 (14) n (%)
Blood creatinine increased (drug related AE, all grades) (Arm A QD 2.0 mg (N = 7)): 1 (14) n (%)
Colitis (drug related AE, Grade 3 and 4) (Arm A QD 2.0 mg (N = 7)): 0 n (%)
Cough (drug related AE, Grade 3 and 4) (Arm A QD 2.0 mg (N = 7)): 1 (14) n (%)
Cough (drug related AE, all grades) (Arm A QD 2.0 mg (N = 7)): 1 (14) n (%)
Decreased Appetite (drug related AE, Grade 3 and 4) (Arm A QD 2.0 mg (N = 7)): 0 n (%)
Decreased Appetite (drug related AE, all grades) (Arm A QD 2.0 mg (N = 7)): 5 (71) n (%)
Dehydration (drug related AE, Grade 3 and 4) (Arm A QD 2.0 mg (N = 7)): 0 n (%)
Dehydration (drug related AE, all grades) (Arm A QD 2.0 mg (N = 7)): 1 (14) n (%)
Dermatitis acneiform (drug related AE, all grades) (Arm A QD 2.0 mg (N = 7)): 0 n (%)
Diarrhoea (drug related AE, Grade 3 and 4) (Arm A QD 2.0 mg (N = 7)): 1 (14) n (%)
Diarrhoea (drug related AE, all grades) (Arm A QD 2.0 mg (N = 7)): 5 (71) n (%)
Dry mouth (drug related AE, all grades) (Arm A QD 2.0 mg (N = 7)): 1 (14) n (%)
Dry skin (drug related AE, all grades) (Arm A QD 2.0 mg (N = 7)): 1 (14) n (%)
Dysgeusia (drug related AE, all grades) (Arm A QD 2.0 mg (N = 7)): 1 (14) n (%)
Dyspepsia (drug related AE, all grades) (Arm A QD 2.0 mg (N = 7)): 1 (14) n (%)
Dysphonia (drug related AE, all grades) (Arm A QD 2.0 mg (N = 7)): 3 (43) n (%)
Fatigue (drug related AE, Grade 3 and 4) (Arm A QD 2.0 mg (N = 7)): 0 n (%)
Fatigue (drug related AE, all grades) (Arm A QD 2.0 mg (N = 7)): 4 (57) n (%)
Flatulence (drug related AE, all grades) (Arm A QD 2.0 mg (N = 7)): 0 n (%)
Hypocalcaemia (drug related AE, Grade 3 and 4) (Arm A QD 2.0 mg (N = 7)): 0 n (%)
Hypocalcaemia (drug related AE, all grades) (Arm A QD 2.0 mg (N = 7)): 0 n (%)
Hypokalaemia (drug related AE, Grade 3 and 4) (Arm A QD 2.0 mg (N = 7)): 2 (29) n (%)
Hypokalaemia (drug related AE, all grades) (Arm A QD 2.0 mg (N = 7)): 2 (29) n (%)
Hyponatraemia (drug related AE, Grade 3 and 4) (Arm A QD 2.0 mg (N = 7)): 0 n (%)
Hyponatraemia (drug related AE, all grades) (Arm A QD 2.0 mg (N = 7)): 0 n (%)
Hypophosphataemia (drug related AE, Grade 3 and 4) (Arm A QD 2.0 mg (N = 7)): 3 (43) n (%)
Hypophosphataemia (drug related AE, all grades) (Arm A QD 2.0 mg (N = 7)): 3 (43) n (%)
Ileus (drug related AE, Grade 3 and 4) (Arm A QD 2.0 mg (N = 7)): 1 (14) n (%)
Increased upper airway secretion (drug related AE, all grades) (Arm A QD 2.0 mg (N = 7)): 0 n (%)
Laryngeal pain (drug related AE, all grades) (Arm A QD 2.0 mg (N = 7)): 0 n (%)
